In US12638439B2, “Method of using human spheroids for drug discovery” (AxoSim, Inc., priority 2019, dated 2026):
Entries after “also recorded” stand apart in the source; their conditions may differ. Structures can show the parent of a compound that is named as a salt.

What was measured:
[1] = tested on: RTT spheroids; experiment: FLIPR spontaneous calcium oscillation assay of iPSC-derived cortical brain spheroids (SMART library screen); format: cell-based, human; settings: for outcome of the SMART library screen (multivariant analysis): 298-compound SMART library on WT and RTT matured spheroids; for rescue or reversal of the RTT disease state, multi parametric plot of spheroid calcium oscillation activity / effect of the drugs on the condition (spontaneous calcium oscillations): 1 micro molar; for rescue or reversal of the RTT disease state, multi parametric plot of spheroid calcium oscillation activity: FIG. 3 and FIG. 4, compared with WT spheroids; for effect of the drugs on the condition (spontaneous calcium oscillations): WT and RTT spheroids, FIG. 4
Text: In one embodiment, the present disclosure provides human induced pluripotent stem cells iPScs that are subsequently differentiated into human cortical neurons comprising neurons and astrocytes in approximately a 50:50 ratio. The ratio can be adjusted on a case by case basis depending on the particular disease of interest from 1 to 99% either neurons or astrocytes. The 3D spheroids are comprised of approximately 50:50 neurons to astrocytes ratio +1-10%. The methods of differentiating and forming 3 dimensional spheroids and functional testing with FLIPR optical techniques is described in copending patent application No. 62/532667. In the examples in this invention we use a disease model cell line which are known to carry genes responsible for Rett syndrome.
In the present disclosure both Wild Type (WT) and Rett Disease (RTT) cortical brain human tissue spheroids were prepared for the purpose of high throughput screening to identify therapeutic compounds that can modulate the brain activity in an attempt to revert or rescue the disease state back to near normal activity or homeostasis. For example, the cell lines employed (control or “WT” and disease “RTT”) may be from a family without and with the Rett disease phenotype.
The method disclosed herein may, in one embodiment, include manufacturing 3D spheroids in 384 well round bottom microtiter plates, see, e.g. U.S. patent application No. 62/532,667, the disclosure of which is incorporated herein. […] In the present disclosure, 6 to 14 weeks of maturation is a maturation range for testing, e.g., 8 to 10 weeks of maturation.
The oscillations being measured are from calcium flux moving into and out of the cells at ambient conditions. The oscillations are spontaneous and not generated by an external source. The measurements are conducted in real time and the data captured by using a technique called FLIPR that is well known in the prior art. […] When analyzing the data, it is important to understand that multiple factors contribute to the signal being recorded by the FLIPR software. Therefore, in the present disclosure 7 parameters are recorded to determine if the data generated from the spheroid is meaningful. The parameters measured are, e.g., peak count, peak width, average peak spacing, peak spacing standard deviation, peak decay time, peak rise time, and/or peak amplitude.
In the present disclosure, the SMART library that contained 298 compounds was used on both WT and RTT matured spheroids over several weeks and the FLIPR data collected and analyzed for potential therapeutic efficacy. The SMART (Selected Molecular Agents for Rett Therapy) library of compounds is well vetted by modern day bioinformatics methods, tightly focused on Rett syndrome and its biological causes. The library is currently housed at the University of Illinois-Chicago. […] With the goals in mind to save both time and resources and accelerate drug discovery for Rett syndrome, the compounds in the SMART library are readily available to investigators working on Rett syndrome research.

[2] = tested on: humans; settings: 1950s and 1960s; cited from earlier work
[3] = tested on: pregnant rats; settings: given to pregnant rats; cited from earlier work
[4] = tested on: pregnant mice; settings: given to pregnant mice; cited from earlier work

| Structure (SMILES) | outcome of the SMART library screen (multivariant analysis) [1] | also measured |
| --- | --- | --- |
| CC(=O)Nc1nnc(S(N)(=O)=O)s1 [Acetazolamide] | therapeutics of interest |  |
| CNCC[C@@H](Oc1ccccc1C)c1ccccc1 [Atomoxetine, Atomoxetine (Tomoxetine)] | therapeutics of interest |  |
| CC(C)n1c(=O)n(C(=O)NC2CC3CCC(C2)N3C)c2ccccc21 (stereo not shown) [BIMU-8] | therapeutics of interest | rescue or reversal of the RTT disease state, multi parametric plot of spheroid calcium oscillation activity ([1]; RTT spheroids): significant effect on reversing or rescuing the RTT disease state; rescue of spontaneous calcium peak frequency and amplitude behavior to the WT state ([1]; RTT spheroids, 2-week exposure time, FIG. 5): rescuing the oscillation activity back to WT normal behavior; also recorded: nearly rescued the WT state |
| NCC(CC(=O)O)c1ccc(Cl)cc1 (stereo not shown) [Baclofen] | therapeutics of interest |  |
| OC(CCN1CCCCC1)(c1ccccc1)C1CCCCC1 (stereo not shown) [Benzhexol Hydrochloride] | therapeutics of interest |  |
| CN(C)CCCOc1nn(Cc2ccccc2)c2ccccc12.Cl [Benzydiamine Hydrochloride] | therapeutics of interest |  |
| OC(CCN1CCCCC1)(c1ccccc1)C1CC2C=CC1C2 (stereo not shown) [Biperiden] | therapeutics of interest |  |
| O=C1Nc2cc(Br)ccc2/C1=C1/Nc2ccccc2/C1=N\O [Bromoindirubin-3-oxime] | therapeutics of interest |  |
| COc1cc(N)c(Cl)cc1C(=O)NC1CCN(Cc2ccccc2)CC1 [Clebopride Mal ate] | therapeutics of interest |  |
| CN1CCC[C@@H]1Cc1c[nH]c2ccc(CCS(=O)(=O)c3ccccc3)cc12 [Eletriptan HBr Salt] | therapeutics of interest |  |
| Oc1cc(O)c2c(c1)O[C@H](c1cc(O)c(O)c(O)c1)[C@H](O)C2 [Epigallocatechin] |  | rescue or reversal of the RTT disease state, multi parametric plot of spheroid calcium oscillation activity ([1]; RTT spheroids): no effect to rescue or reverse the spontaneous calcium oscillations; effect of the drugs on the condition (spontaneous calcium oscillations) [1]: made the condition worse |
| CC1Nc2ccc(Cl)cc2S(=O)(=O)N1 (stereo not shown) [IDRA-21] | therapeutics of interest |  |
| COc1cc(C(C)=O)ccc1OCCCN1CCC(c2noc3cc(F)ccc23)CC1 [Iloperidone] | therapeutics of interest |  |
| Cc1nccn1CC1CCc2c(c3ccccc3n2C)C1=O (stereo not shown) [Ondansetron] | therapeutics of interest |  |
| CC(C)COc1ccc(CNC(=O)N(Cc2ccc(F)cc2)C2CCN(C)CC2)cc1 [Pinmavanserin] | therapeutics of interest |  |
| O=c1n(CCCN2CCN(c3cccc(Cl)c3)CC2)nc2ccccn12 [Trazodone, Trazodone (Beneficat)] | therapeutics of interest |  |
| CCOC(=O)C1=C[C@]2(CC)CCCN3CCc4c(n1c1ccccc41)[C@@H]32 [Vinpocetine] | therapeutics of interest |  |
| O=C(CCCCCCC(=O)Nc1ccccc1)NO [Vorinostat] |  | rescue or reversal of the RTT disease state, multi parametric plot of spheroid calcium oscillation activity ([1]; RTT spheroids): no effect to rescue or reverse the spontaneous calcium oscillations; effect of the drugs on the condition (spontaneous calcium oscillations) [1]: made the condition worse |
| O=C1CCC(N2C(=O)c3ccccc3C2=O)C(=O)N1 (stereo not shown) [thalidomide] |  | birth defects [2]: caused an international epidemic of birth defects; birth defects [3]: does not cause birth defects; birth defects [4]: does not cause birth defects |
